Measurements as given in patent US20240139193A1, “COMBINATION THERAPY OF KRAS INHIBITOR AND SHP2 INHIBITOR FOR TREATMENT OF CANCERS” (AMGEN INC., priority 2019, published 2024).

What was measured:
KRAS p.G12C tumors [1] = assay: Preclinical anti-tumor efficacy of AMG 510; assay type: in vivo
KRAS p.G12C tumors [2] = assay: AMG 510 treatment in immune-competent mice; assay type: in vivo
KRAS p.G12C models = conditions: preclinical KRAS p.G12C models; cited from earlier work

Compound	anti-tumor efficacy of chemotherapy and targeted agents in combination (KRAS p.G12C tumors [1])	outcome in combination with immune checkpoint inhibition (KRAS p.G12C tumors [2])	in vivo efficacy (KRAS p.G12C models)
C=CC(=O)N1CCN(c2nc(=O)n(-c3c(C)ccnc3C(C)C)c3nc(-c4c(O)cccc4F)c(F)cc23)[C@@H](C)C1 [Compound A, 4-((S)-4-acryloyl-2-methylpiperazin-1-yl)-6-fluoro-7-(2-fluoro-6-hydroxyphenyl)-1-(2-isopropyl-4-methylpyridin-3-yl)pyrido[2,3-d]pyrimidin-2(1H)-one]	significantly improved	durable cures	
C=CC(=O)N1CCN(c2ncnc3c(F)c(-c4c(O)cccc4F)c(Cl)cc23)CC1 [ARS-1620]			demonstrates in vivo efficacy
